Reference: US4382934A, “Isatin derivatives, processes for the preparation thereof and pharmaceutical composition comprising the same” (Fujisawa Pharmaceutical Co., Ltd., priority 1978, dated 1983)

Test system: anaphylactic asthma in guinea-pigs
Experiment: Antagonism to anaphylactic asthma in guinea-pigs
Type: in vivo, guinea-pig (male Hartley)
Conditions: 30 min before egg albumin aerosol; for Inhibitory effect of anaphylactic asthma in guinea-pig: survival more than 2 hours
Procedure: (1) Preparation of rabbit antiserum against egg albumin
Equal volumes of a saline solution of egg albumin (200 mg./ml.) and of Freund's Complete Ajuvant were mixed and emulsified. Each male New Zealand white strain rabbits, each weighing 2 to 2.5 kg., received an intramuscular injection of 0.5 ml. of the emulsion in the left and right thigh regions. One week later, they received an intradermal injection of 0.25 ml. of a saline solution of egg albumin (concentration: 20 mg./ml.) in the different four sites of the dorsal skin surface three times every other week. Blood samples were collected from the carotid artery one week after the last injection.
(2) Determination of Passive Cutaneous Anaphylaxis (PCA) titer
The level of anaphylactic anti-egg albumin antibodies in pools of sera were determined by passive cutaneous anaphylaxis (PCA) reactions using shaven Hartley strain test guinea-pigs.
Antiserum was serially diluted (two fold) in saline and 0.1 ml. of each antiserum dilution were injected intradermally into the dorsal skin surface of the test guinea-pigs. 24 Hours after intradermal sensitization,Egg albumin-specific PCA reactions were elicited by intravenous injection of 10 mg. of egg albumin in 1 ml. of 1% Evans blue dye dissolved in saline. Reactions were read and recorded as the highest dilution of serum evoking threshold PCA reactivity (5 mm diameter).
(3) Antagonism to anaphylactic asthma in guinea-pigs
Male Hartley stain guinea-pigs, weighing 305 to 400 g, were used. Animals were sensitized by an intravenous injection of rabbit antiserum against egg albumin (4000 PCA titer) with 0.5 ml./animal. After 24 hours, animals were placed individually in a plastic chamber of 5.3 liter volume. An aerosol of 5% egg albumin solution was sprayed in the chamber at a rate of 0.16 ml./min with a commercial nebulizer. The test compound was given to the animals orally 30 minutes before the challenge with the egg albumin solution. Each dose group consisted of ten animals. The inhibitory effect of the test compound was determined from the number of surviving animals more than 2 hours after spray of the antigen. The ED50 value (dose to be required 50% protection from death) was calculated according to Litchfield-Wilcoxon method.

## O=C1C(=O)N(CCCN2CCN(C(c3ccccc3)c3ccccc3)CC2)c2ccccc21 [1-[3-(4-Benzhydryl-1-piperazinyl)propyl]isatin]
0.1 mg./kg. P.O.
  Inhibitory effect of anaphylactic asthma in guinea-pig: 0%
1.0 mg./kg. P.O.
  Inhibitory effect of anaphylactic asthma in guinea-pig: 20%
3.2 mg./kg. P.O.
  Inhibitory effect of anaphylactic asthma in guinea-pig: 40%
10.0 mg./kg. P.O.
  Inhibitory effect of anaphylactic asthma in guinea-pig: 80%
32.0 mg./kg. P.O.
  Inhibitory effect of anaphylactic asthma in guinea-pig: 100%
100.0 mg./kg. P.O.
  Inhibitory effect of anaphylactic asthma in guinea-pig: 100%
Cavia porcellus, po, 2 h, P.O., Litchfield-Wilcoxon method, read-out: ED50 (dose to be required 50% protection from death)
  ED50: 3.4 mg/kg
